Data as given in patent publication US8288552B2, “Dihydropyridone amidesas P2X7 modulators” (Roche Palo Alto LLC, priority 2008, dated 2012).

target: T1, P2X7 (UniProt Q99572); assay: P2X7 pKi of Table 1; assay type: cell-based
T1 sequence (Q99572 1-595): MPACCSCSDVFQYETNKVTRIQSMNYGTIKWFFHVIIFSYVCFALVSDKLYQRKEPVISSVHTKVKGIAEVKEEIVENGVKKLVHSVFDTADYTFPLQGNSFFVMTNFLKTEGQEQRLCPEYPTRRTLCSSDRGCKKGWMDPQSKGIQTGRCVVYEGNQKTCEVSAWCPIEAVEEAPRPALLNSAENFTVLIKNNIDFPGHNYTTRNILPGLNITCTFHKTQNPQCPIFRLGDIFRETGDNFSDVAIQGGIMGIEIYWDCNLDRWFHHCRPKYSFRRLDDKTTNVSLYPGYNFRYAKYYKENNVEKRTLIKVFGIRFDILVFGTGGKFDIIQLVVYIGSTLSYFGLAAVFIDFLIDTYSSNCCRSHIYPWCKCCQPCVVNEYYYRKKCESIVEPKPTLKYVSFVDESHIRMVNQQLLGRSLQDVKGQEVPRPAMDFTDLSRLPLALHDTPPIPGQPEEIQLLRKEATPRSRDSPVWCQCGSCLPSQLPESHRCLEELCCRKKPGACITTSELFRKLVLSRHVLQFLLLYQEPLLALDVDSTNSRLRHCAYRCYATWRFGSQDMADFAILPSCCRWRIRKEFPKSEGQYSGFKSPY
Outline: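 Human P2X7 in 1321N1 cells and rat P2X7 in HEK293 cells, loaded with fluo-3 for 1 hr at 37° C, then exposed to antagonist for 20 min at room temperature. BzATP agonist was used at 100 μM final (human) or 5 μM final (rat), with fluorescence read for 5 min. The response was normalized to maximal fluorescence evoked by 5 μM ionomycin.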

SMILES	pKi
O=C1C[C@@H](c2cccc(F)c2)C(C(=O)NCc2ccccc2Cl)=CN1 [Compound 84, (S)-4-(3-Fluoro-phenyl)-6-oxo-1,4,5,6-tetrahydro-pyridine-3-carboxylic acid 2-chloro-benzylamide]	6.365
CC(=O)COc1cc(NC(=O)C2=CNC(=O)C[C@H]2c2cccc(F)c2)c(C)cc1F [Compound 85, (S)-4-(3-Fluoro-phenyl)-6-oxo-1,4,5,6-tetrahydro-pyridine-3-carboxylic acid[4-fluoro-2-methyl-5-(2-oxo-propoxy)-phenyl]-amide]	6.705
Cc1c(F)cccc1NC(=O)C1=CNC(=O)C[C@H]1c1ccc(F)cc1 [Compound 87, (S)-4-(4-Fluoro-phenyl)-6-oxo-1,4,5,6-tetrahydro-pyridine-3-carboxylic acid(3-fluoro-2-methyl-phenyl)-amide]	6.63
Cc1ccc([C@@H](C)O)cc1NC(=O)C1=CNC(=O)C[C@H]1c1ccc(F)cc1 [Compound 89, (S)-4-(4-Fluoro-phenyl)-6-oxo-1,4,5,6-tetrahydro-pyridine-3-carboxylic acid[5-((R)-1-hydroxy-ethyl)-2-methyl-phenyl]-amide]	7.443
Cc1ccc(Cl)cc1NC(=O)C1=CNC(=O)C[C@H]1c1cccc(F)c1 [Compound 92, (S)-4-(3-Fluoro-phenyl)-6-oxo-1,4,5,6-tetrahydro-pyridine-3-carboxylic acid(5-chloro-2-methyl-phenyl)-amide]	6.995
CC(=O)c1ccc(C)c(NC(=O)C2=CNC(=O)C[C@H]2c2ccc(F)cc2)c1 [Compound 93, (S)-4-(4-Fluoro-phenyl)-6-oxo-1,4,5,6-tetrahydro-pyridine-3-carboxylic acid(5-acetyl-2-methyl-phenyl)-amide]	6.86
O=C1C[C@@H](c2ccc(F)cc2)C(C(=O)NCc2ccccc2Cl)=CN1 [Compound 97, (S)-4-(4-Fluoro-phenyl)-6-oxo-1,4,5,6-tetrahydro-pyridine-3-carboxylic acid 2-chloro-benzylamide]	6.16
Cc1ccc(OC(F)(F)F)cc1NC(=O)C1=CNC(=O)C[C@H]1c1ccc(F)cc1 [Compound 99, (S)-4-(4-Fluoro-phenyl)-6-oxo-1,4,5,6-tetrahydro-pyridine-3-carboxylic acid(2-methyl-5-trifluoromethoxy-phenyl)-amide]	6.755

Continued, values first:

pKi	SMILES
6.17	Cc1ccccc1CNC(=O)C1=CNC(=O)C[C@H]1c1cccc(F)c1 [Compound 83, (S)-4-(3-Fluoro-phenyl)-6-oxo-1,4,5,6-tetrahydro-pyridine-3-carboxylic acid 2-methyl-benzylamide]
7.915	Cc1c(Cl)cccc1NC(=O)C1=CNC(=O)C[C@H]1c1cccc(F)c1 [Compound 88, (S)-4-(3-Fluoro-phenyl)-6-oxo-1,4,5,6-tetrahydro-pyridine-3-carboxylic acid(3-chloro-2-methyl-phenyl)-amide]
7.19	Cc1ccc([C@H](C)O)cc1NC(=O)C1=CNC(=O)C[C@H]1c1ccc(F)cc1 [Compound 90, (S)-4-(4-Fluoro-phenyl)-6-oxo-1,4,5,6-tetrahydro-pyridine-3-carboxylic acid[5-((S)-1-hydroxy-ethyl)-2-methyl-phenyl]-amide]
5.65	COc1cc(C)c(NC(=O)C2=CN(C)C(=O)C(C)C2c2ccc(F)cc2)cc1OC (centres unmarked) [Compound 91, 4-(4-Fluoro-phenyl)-1,5-dimethyl-6-oxo-1,4,5,6-tetrahydro-pyridine-3-carboxylic acid(4,5-dimethoxy-2-methyl-phenyl)-amide]
7.83	Cc1c(Cl)cccc1NC(=O)C1=CNC(=O)C[C@H]1c1ccc(F)cc1 [Compound 94, (S)-4-(4-Fluoro-phenyl)-6-oxo-1,4,5,6-tetrahydro-pyridine-3-carboxylic acid(3-chloro-2-methyl-phenyl)-amide]
6.26	O=C1C[C@@H](c2ccc(F)cc2)C(C(=O)Nc2ccccc2C(F)(F)F)=CN1 [Compound 95, (S)-4-(4-Fluoro-phenyl)-6-oxo-1,4,5,6-tetrahydro-pyridine-3-carboxylic acid(2-trifluoromethyl-phenyl)-amide]
